# Data: paper PMC2635096 (Journal of biological inorganic chemistry : JBIC : a …, 2008)
# Where two headings read alike, the source gives them in different places.
# Experiments:
# [1] = test system: H60C_NP1 (His-60 to Cys-60 mutant of nitrophorin 1); test: biochemical; format: binding, Rhodnius prolixus; settings: H60C_NP1 vs NP1
# [2] = target: H60C_NP1 (His-60 to Cys-60 mutant of nitrophorin 1) (Rhodnius prolixus, UniProt Q26239, H82C); test: biochemical; format: binding
# [3] = target: NP1 (wild-type nitrophorin 1) (Rhodnius prolixus, UniProt Q26239); test: UV/Vis ligand titration, equilibrium binding constants
# [4] = read-out: Dissociation constant (Kd) of ligand complex of NP1, 25°C, PBS buffer (50mM Na-phosphate, 100 mM NaCl, pH 7.4), UV/Vis titration
# Chain of NP1 (wild-type nitrophorin 1) (Q26239 24-207): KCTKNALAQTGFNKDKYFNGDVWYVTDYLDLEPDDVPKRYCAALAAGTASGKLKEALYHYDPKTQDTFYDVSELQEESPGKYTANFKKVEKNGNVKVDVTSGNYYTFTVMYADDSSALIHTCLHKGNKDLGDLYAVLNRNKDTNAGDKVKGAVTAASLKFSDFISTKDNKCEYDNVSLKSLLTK
# Chain of H60C_NP1 (His-60 to Cys-60 mutant of nitrophorin 1) (Rhodnius prolixus, UniProt Q26239, H82C) (Q26239 24-207 H82C): as the sequence (Q26239 24-207) above, with H59C counted along it
Compound,Increase in dissociation constant for H60C_NP1 relative to NP1 [1],Kd [2],Kd [3],"Kd [3, 4]","Kd ([3]; read-out: Dissociation constant (Kd) of ligand complex of NP1, 25°C, PBS buffer (50mM Na-phosphate, 100 mM NaCl, pH 7.4), UV/Vis titration, listed as imidazole)"
Cc1c[nH]cn1 [4-Methylimidazole],more than three orders of magnitude,560000 nM,182 nM,–,–
c1c[nH]cn1 [Imidazole],–,–,–,255 nM,250 nM
CCCCn1ccnc1 [N-(n-Butyl)imidazole],–,–,–,52 nM,–
